Like-named read-outs stand apart in the source and are kept apart here.
Legend:
E. histolytica = E. histolytica viability, ATP luminescence (Cell titer glo); assay type: cell-based, Entamoeba histolytica; settings: Entamoeba histolytica, 48 h; for viability at 2.5 µM: read-out: Residual viability, E.histolytica (2.5 µM); for viability at 25 µM: read-out: Residual viability, E.histolytica (25 µM)
Experimental: Entamoeba histolytica (strain B2-5) was passaged in TY-1 medium (Trypticase peptone BBL, Yeast extract BBL, glucose, NaCl, K2HPO4, KH2PO4, cysteine, ascorbic acid, ammonium iron citrate, adult bovine serum, Diamond tween 80, penicillin G, amikacin (pH:6.8)) and kept in 37°C incubator in completely filled tubes with closed lid.
Viability of E. histolytica was assayed via a luminescence assay based on ATP quantification in the live cells. Briefly, 2.5x10^4 cell/ml were exposed to 25 μM of compounds in 96 well plates (non-transparent, tissue culture treated, flat bottom; SPL Life Sciences) in triplicate for 48h. Plates were incubated in sealed anaerobic bags (Oxoid AGS) together with an Anaerogen compact bag (Thermo Scientific) and anaerobic indicator (Thermo Scientific) at 37°C. Then, Cell titer glo reagent (Promega) was added to the reaction (1:5) according to manufacturers’ instruction. After 15 min of orbital shaking, followed by 10 min incubation at RT, ATP-bioluminescence was quantified at RT using a Synergy H1 plate reader (Synergy H1, BioTek). Metronidazole was included as control drug in all the assays for E. histolytica. Test compounds indicating significant growth reduction in the primary screen were subjected to potency determination. These secondary screens were essentially carried out as detailed above, but with a 9 to 16-point concentration range of the test compounds spanning 0.01–100 μM.

T. brucei brucei BSF = assay: T. brucei BSF viability, resazurin reduction; assay type: cell-based, Trypanosoma brucei brucei; settings: Trypanosoma brucei, 72 h, BSF, 72 h
Experimental: T. brucei brucei (strain 427 Lister) blood stream form (BSF) parasites were passaged in complete HMI-9 media supplemented with 10% FCS, Pen-Strep (0.1%) and 2-mercaptoethanol (0.014 v/v) and kept in a 37° C CO2 incubator in filter-cap flasks.
(§1) Viability of T. brucei brucei BSF and T. cruzi trypomastigotes was assayed with fluorescence resazurin reduction assay, essentially as described above. […] Next, selected compounds were tested at 2.5 μM concentration, and promising compounds subjected to 18 concentrations dose response analyses. AN3057 and AmB were used as a control drug in T. brucei and T. cruzi, respectively.

[1] = test system: L. major axenic amastigotes; assay: L. major axenic amastigote viability, resazurin reduction; settings: Leishmania major
Experimental: L. major LV561(MHOM/IL/67/LRC-L137 JERICHO II) amastigotes were passaged in Grace insect medium supplemented with NaHCO3, 0.1% amikin and 20% of FCS (pH: 5.4) and kept at 33°C.
Exponential growth phase promastigotes of L. major or L. infantum and axenic amastigotes (L. major) were harvested and seeded in 384 well plates (white, non-transparent, tissue culture treated, flat bottom; Corning) (0.5x10^5 cells per well). Compounds were pre-dispensed into the plate with an Echo 650 acoustic dispenser (Beckman Coulter). After 72h incubation, resazurin was added (1:10 v/v) from a […] stock in PBS, followed by incubation for six hours. Then, fluorescence intensity was measured using a microplate reader (Synergy H1, BioTek) with excitation filter: 550 nm and emission filter: 590 nm. Efficient compounds were selected for the next round of viability assay with 2.5 μM concentrations of the compounds. […] All experiments were performed with AmB as a positive control drug in parallel.
Axenic amastigotes, the relevant form that persists in the infected host, were generated in the lab through established procedures, employing harsh pH (pH 5) and high temperature (33°C) conditions.

[2] = Cytotoxicity assay J774, resazurin reduction; assay type: cell-based, murine; settings: mouse, J774 macrophage cells, cytotoxicity, 72 h
Experimental: Mammalian cell lines (J774 and HepG2) were passaged in RPMI media supplemented with MEM, Pen-Strep (1%) and 10% FCS. Cultures were kept at 37°C incubator with 5% CO2 in filter-cap flasks.
Murine macrophage cells (J774) and human hepatocyte carcinoma HepG2 cells were seeded at 0.5x10^5 cell/well in 384 well plates in triplicate, exposed to serial dilution of compounds, dispensed using an Echo 650 acoustic dispenser (Labcyte). After incubation for 72 h at 37°C, 5% CO2, cell viability was determined using fluorescence resazurin reduction assay (λEx: 550 nm; λEm: 590 nm).

[3] = test system: L. infantum promastigotes; assay: L. infantum promastigote viability, resazurin reduction; assay type: cell-based, Leishmania infantum; settings: Leishmania infantum, 72 h, vs non-treated cells
Source text: (§2) The infectivity of the parasites was boosted by passaging in Balb/c mice and culturing the infected lymph nodes after six weeks. L. infantum (MHOM / BR / 76 / M4192) parasite was passaged in the same media formulation with 0.5% urine.

[4] = test system: intracellular L. infantum amastigotes; assay: Parasite rescue assay (intramacrophage, J774 infected with L. infantum); assay type: cell-based, Leishmania infantum; settings: Leishmania infantum, J774, rescue assay in J774, 25 µM; read-out: Residual viability, intracellular L. infantum amastigote (25 µM)
Experimental: After 24 h incubation, cells were washed five times with serum free RPMI and exposed to a serial dilution of test compounds, prepared using an acoustic dispenser (Echo 650, Labcyte), in RPMI (2% FCS). After two days, cells were washed thrice, and 20 μl of 0.05% SDS in RPMI was added upon removal of the supernatant. Upon incubation under orbital shaking for 30 seconds, cell lysis was stopped by addition of 180 μl M199 medium supplemented with 10% FCS. […] Then, fluorescence intensity of the samples was measured with a microplate reader (Synergy H1, BioTek) with λEx: 550 nm and λEm: 590 nm. Percent of viability was calculated according to cell only and media controls.
J774A.1 cells (J774) were infected with L. infantum metacyclic promastigotes. […] After controlled lysis of the infected macrophages, the released parasites were quantified using a resazurin based viability assay.

T. cruzi trypomastigotes = assay: T. cruzi viability, resazurin reduction; assay type: cell-based, Trypanosoma cruzi; settings: Trypanosoma cruzi, 72 h, 72 h
Experimental: T. cruzi (Y strain) trypomastigotes were passaged in liver infusion broth media supplemented with tryptose, NaCl, Na2HPO4, KCl, glucose, hemin, Pen-Strep (1%), 10% FCS (pH: 7.2) and kept at 28°C.
as §1

L. major promastigotes = assay: L. major promastigote viability, resazurin reduction; assay type: cell-based, Leishmania major; settings: Leishmania major; 25 µM, 72 h, vs non-treated cells; read-out: Residual viability, L.major promastigote (25 µM)
Source text: as §2

T. brucei BSF proteome = test system: T. brucei BSF proteome; design: method as in PMID: 32354742; settings: ref PMID: 32354742, cited from earlier work

Work on `Cc1ncc([N+](=O)[O-])n1CCO` [Metronidazole, reference compound] yielded a viability at 2.5 µM (E. histolytica) of 71.6 ± 32.3%, a viability at 25 µM (E. histolytica) of -7.82 ± 3.48% and an EC50 (E. histolytica; 9 to 16-point dose response) of 2.9 ± 1.8 µM.

Work on `CC[C@@H](C)[C@H](c1nc2ccccc2n1Cc1cn(-c2c(F)c(F)c(F)c(F)c2F)nn1)N1C(=O)c2ccccc2C1=O` [PHT-41] yielded a viability at 2.5 µM (T. brucei brucei BSF; 2.5 µM, read-out: Residual viability, T.brucei (2.5 µM)) of 57.4 ± 11%, a viability at 25 µM (T. brucei brucei BSF; 25 µM, read-out: Residual viability, T.brucei (25 µM)) of 3.15 ± 3% and a viability at 2.5 µM ([1]; 72 h, read-out: Residual viability, L.major amastigote (2.5 µM)) of 64.8 ± 5.36%. For the same compound, the viability at 25 µM ([1]; 72 h, read-out: Residual viability, L.major amastigote (25 µM)) was 4.6%, the EC50 ([1]; read-out: EC50 L. major axenic amastigote) was 3.6 ± 2.1 µM and the viability at 72 h, 2.5 µM ([2]; 2.5 µM, read-out: Residual viability, J774 (2.5 µM)) was 96.1 ± 3.84%. The viability at 72 h, 25 µM ([2]; 25 µM, read-out: Residual viability, J774 (25 µM)) was 86.1 ± 5.26%, the viability at 2.5 µM (E. histolytica; 2.5 µM) was 110 ± 24.2% and the viability at 25 µM (E. histolytica; 25 µM) was 53.3 ± 1.97%. It also gave a viability at 2.5 µM ([3]; 2.5 µM, read-out: Residual viability, L. infantum promastigote (2.5 µM)) of 54.6 ± 1.29%, a viability at 25 µM ([3]; 25 µM, ± SD, triplicate, read-out: Residual viability, L. infantum promastigote (25 µM)) of 12.4 ± 1.22% and a viability at 25 µM [4] of 81.4 ± 2.86%. The viability at 2.5 µM (T. cruzi trypomastigotes; 2.5 µM, read-out: Residual viability, T.cruzi (2.5 µM)) was 64.5 ± 2.58%, the viability at 25 µM (T. cruzi trypomastigotes; read-out: Residual viability, T.cruzi (25 µM), 25 µM, 72 h) was 22.7 ± 0.63% and the viability at 25 µM (L. major promastigotes) was 21.5 ± 1.47%.

For `Cc1ccc(C(=O)Nc2ccc(S(=O)(=O)O)c3cc(S(=O)(=O)O)cc(S(=O)(=O)O)c23)cc1NC(=O)c1cccc(NC(=O)Nc2cccc(C(=O)Nc3cc(C(=O)Nc4ccc(S(=O)(=O)O)c5cc(S(=O)(=O)O)cc(S(=O)(=O)O)c45)ccc3C)c2)c1` [suramin], the “suramin ratio (protein abundance)” value (T. brucei BSF proteome; protein 2-oxoglutarate dehydrogenase E1 component, Tb927.11.1450) is listed as 2.73, the “suramin ratio (protein abundance)” value (T. brucei BSF proteome; protein 2-oxoglutarate dehydrogenase E1 component, Tb927.11.9980) is listed as 3.16 and the “suramin ratio (protein abundance)” value (T. brucei BSF proteome; protein ACS1, Tb927.7.6180) is listed as 0.80. The “suramin ratio (protein abundance)” value (T. brucei BSF proteome; protein Aconitase, Tb927.10.14000) was 2.76, the “suramin ratio (protein abundance)” value (T. brucei BSF proteome; protein CIF1 (TOEFAZ1), Tb927.11.15800) was 0.78 and the “suramin ratio (protein abundance)” value (T. brucei BSF proteome; protein CIF3, Tb927.10.13100) was 1.00. The “suramin ratio (protein abundance)” value (T. brucei BSF proteome; protein CIF4, Tb927.10.8240) was 0.84, the “suramin ratio (protein abundance)” value (T. brucei BSF proteome; protein F1 alpha, Tb927.7.7430, Tb927.7.7420) was 1.62 and the “suramin ratio (protein abundance)” value (T. brucei BSF proteome; protein F1 beta, Tb927.3.1380) was 1.57. The “suramin ratio (protein abundance)” value (T. brucei BSF proteome; protein F1 gamma, Tb927.10.180) was 1.62, the “suramin ratio (protein abundance)” value (T. brucei BSF proteome; protein F1 p18, Tb927.5.1710) was 0.87 and the “suramin ratio (protein abundance)” value (T. brucei BSF proteome; protein FPRC, Tb927.10.6360) was 1.14. The “suramin ratio (protein abundance)” value (T. brucei BSF proteome; protein Fo 8, Tb927.4.3450) was 1.62, the “suramin ratio (protein abundance)” value (T. brucei BSF proteome; protein Fo ATBTB1, Tb927.10.520) was 1.20 and the “suramin ratio (protein abundance)” value (T. brucei BSF proteome; protein Fo ATBTB3, Tb927.11.6250) was 1.77. For the same compound, the “suramin ratio (protein abundance)” value (T. brucei BSF proteome; protein Fo ATBTB4, Tb927.10.9830) was 0.88, the “suramin ratio (protein abundance)” value (T. brucei BSF proteome; protein Fo ATBTB12, Tb927.5.3090) was 1.92 and the “suramin ratio (protein abundance)” value (T. brucei BSF proteome; protein Fo OSCP, Tb927.10.8030) was 1.11. For the same compound, the “suramin ratio (protein abundance)” value (T. brucei BSF proteome; protein Fo d, Tb927.5.2930) was 1.32, the “suramin ratio (protein abundance)” value (T. brucei BSF proteome; protein Fo e, Tb927.11.600) was 1.21 and the “suramin ratio (protein abundance)” value (T. brucei BSF proteome; protein Fo f, Tb927.3.1690) was 1.06. The “suramin ratio (protein abundance)” value (T. brucei BSF proteome; protein Fo i/j, Tb927.3.2880) was 1.67, the “suramin ratio (protein abundance)” value (T. brucei BSF proteome; protein Fo k, Tb927.7.840) was 1.07 and the “suramin ratio (protein abundance)” value (T. brucei BSF proteome; protein Glutamate dehydrogenase, Tb927.9.5900) was 3.30. For the same compound, the “suramin ratio (protein abundance)” value (T. brucei BSF proteome; protein PIP39, Tb927.9.6090) was 2.83, the “suramin ratio (protein abundance)” value (T. brucei BSF proteome; protein PPDK, Tb927.11.6280) was 2.94 and the “suramin ratio (protein abundance)” value (T. brucei BSF proteome; protein Proline dehydrogenase, Tb927.7.210) was 4.55. The “suramin ratio (protein abundance)” value (T. brucei BSF proteome; protein SAXO, Tb927.8.6240) was 0.98, the “suramin ratio (protein abundance)” value (T. brucei BSF proteome; protein Tb927.1.4280) was 0.91 and the “suramin ratio (protein abundance)” value (T. brucei BSF proteome; protein isocitrate dehydrogenase, Tb927.8.3690) was 1.96. For the same compound, the “suramin ratio (protein abundance)” value (T. brucei BSF proteome; protein mitochondrial malate dehydrogenase, Tb927.10.2560) was 1.99, the “suramin ratio (protein abundance)” value (T. brucei BSF proteome; protein succinyl-CoA ligase beta-chain, Tb927.10.7410) was 1.97 and the “suramin ratio (protein abundance)” value (T. brucei BSF proteome; protein succinyl-CoA synthetase alpha subunit, Tb927.3.2230) was 1.94.
